Measured values: US20220387602A1, “BIFUNCTIONAL DEGRADERS AND THEIR METHODS OF USE” (NOVARTIS AG, priority 2019, published 2022)

Assays:
CRBN = CRBN (Homo sapiens, UniProt Q96SW2); assay: CRBN displacement assay Format 1 (fluorescence polarization, BodipyFL-lenalidomide probe Compound HH); type: binding
How it was run: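 Fluorescence polarization competition: CRBN (nominal 100 nM final) pre-incubated 45 min at room temperature with compound, then BodipyFL-lenalidomide probe added (5 nM final; 0.9% DMSO).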

BTK = target: T1, BTK (Homo sapiens, UniProt Q06187); assay: BTK-GFP protein abundance flow cytometry assay in HEK293A; type: cell-based; conditions: 24 h; for BTK degradation Amax: % protein remaining at the concentration at which maximum degradation is seen, HEK293A; for DC50: concentration at which 50% maximal degradation was observed, HEK293A BTK-GFP sensor cells
T1 construct: the BTK open reading frame (ORF) was first shuttled from a pcDNA-DEST40-BTK vector; expressed in transfected cells; host or cells: HEK293A (Invitrogen R70507), lentiviral transduction, blasticidin selection
How it was run: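 HEK293A cells stably expressing bicistronic BTK-GFP-iresRFP were treated 24 h at 37° C with 10-point 1:3 dilutions from 10 μM, DMSO at 0.1%. GFP was read by flow cytometry as median of 5,000 single cells, scaled between RFP-only cells (0%) and DMSO controls (100%). DC50 = concentration at 50% degradation; Amax = % protein remaining at maximal degradation.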

T1 sequence (Q06187 whole entry): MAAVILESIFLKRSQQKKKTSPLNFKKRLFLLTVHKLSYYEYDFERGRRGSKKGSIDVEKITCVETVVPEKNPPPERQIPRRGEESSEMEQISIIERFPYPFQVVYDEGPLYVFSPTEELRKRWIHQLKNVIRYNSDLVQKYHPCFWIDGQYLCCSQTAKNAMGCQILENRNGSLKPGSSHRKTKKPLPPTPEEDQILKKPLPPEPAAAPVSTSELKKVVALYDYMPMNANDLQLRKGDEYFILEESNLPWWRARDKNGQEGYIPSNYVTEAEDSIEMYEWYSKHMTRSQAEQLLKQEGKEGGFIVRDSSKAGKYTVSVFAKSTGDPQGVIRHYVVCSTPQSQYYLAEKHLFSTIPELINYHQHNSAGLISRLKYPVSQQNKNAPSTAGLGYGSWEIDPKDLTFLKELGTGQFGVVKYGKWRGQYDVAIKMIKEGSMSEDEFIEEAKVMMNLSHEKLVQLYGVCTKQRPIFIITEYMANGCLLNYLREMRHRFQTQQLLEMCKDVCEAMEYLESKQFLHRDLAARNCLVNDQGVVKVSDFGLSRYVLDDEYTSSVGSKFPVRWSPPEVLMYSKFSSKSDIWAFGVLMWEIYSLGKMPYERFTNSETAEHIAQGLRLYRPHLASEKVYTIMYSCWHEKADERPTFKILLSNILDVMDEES
Sequence of CRBN (Q96SW2 whole entry): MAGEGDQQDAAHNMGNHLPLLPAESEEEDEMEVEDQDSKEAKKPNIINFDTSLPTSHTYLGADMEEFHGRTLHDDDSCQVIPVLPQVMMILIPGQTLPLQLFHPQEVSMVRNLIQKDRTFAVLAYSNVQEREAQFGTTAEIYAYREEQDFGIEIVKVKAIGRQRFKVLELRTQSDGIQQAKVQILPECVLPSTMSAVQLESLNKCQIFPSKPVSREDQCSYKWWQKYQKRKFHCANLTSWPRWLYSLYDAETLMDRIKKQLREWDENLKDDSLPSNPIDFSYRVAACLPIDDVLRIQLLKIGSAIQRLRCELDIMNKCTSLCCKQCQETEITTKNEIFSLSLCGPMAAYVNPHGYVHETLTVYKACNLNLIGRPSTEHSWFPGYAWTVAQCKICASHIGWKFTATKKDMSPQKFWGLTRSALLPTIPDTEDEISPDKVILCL

COc1ccc(C(=O)N2CCC3(CCN(C(=O)CCCCCCCN4CCN(c5cc(Nc6ncc(C(=O)Nc7c(C)cccc7Cl)s6)nc(C)n5)CC4)CC3)CC2)cc1N1CCC(=O)NC1=O [compound 06, N-(2-chloro-6-methylphenyl)-2-((6-(4-(8-(9-(3-(2,4-dioxotetrahydropyrimidin-1(2H)-yl)-4-methoxybenzoyl)-3,9-diazaspiro[5.5]undecan-3-yl)-8-oxooctyl)piperazin-1-yl)-2-methylpyrimidin-4-yl)amino)thiazole-5-carboxamide]
AC50 (CRBN): 162 nM | BTK degradation Amax (BTK): 2.1% | DC50 (BTK): 4.7 nM

COc1ccc(C(=O)N2CCC3(CCN(C(=O)CN4CCN(c5cc(Nc6ncc(C(=O)Nc7c(C)cccc7Cl)s6)nc(C)n5)CC4)CC3)CC2)cc1N1CCC(=O)NC1=O [compound 07, N-(2-chloro-6-methylphenyl)-2-((6-(4-(2-(9-(3-(2,4-dioxotetrahydropyrimidin-1(2H)-yl)-4-methoxybenzoyl)-3,9-diazaspiro[5.5]undecan-3-yl)-2-oxoethyl)piperazin-1-yl)-2-methylpyrimidin-4-yl)amino)thiazole-5-carboxamide]
AC50 (CRBN): 496 nM | BTK degradation Amax (BTK): 0.9% | DC50 (BTK): 9.3 nM
